Species: Rattus norvegicus
Assay: DrugMatrix - Regimen: Daily Repeat
Format: toxicity, organism-based, Sprague-Dawley
Parameters: regimen Daily Repeat, gender Male, age 6-8 weeks
Conditions: in vivo, po, route oral GAVAGE, vehicle 100 % SALINE; for ABSOLUTE EOSINOPHIL / ABSOLUTE LYMPHOCYTE / ABSOLUTE MONOCYTE / ABSOLUTE SEGMENTED NEUTROPHIL / BASOPHIL / EOSINOPHIL / ERYTHROCYTE COUNT / HEMATOCRIT / HEMOGLOBIN / LEUKOCYTE COUNT / LYMPHOCYTE / MEAN CORPUSCULAR HEMOGLOBIN / MEAN CORPUSCULAR HEMOGLOBIN CONCENTRATION / MEAN CORPUSCULAR VOLUME / MONOCYTE / NEUTROPHIL / NUCLEATED RED BLOOD CELLS / PLATELET COUNT / ABSOLUTE BASOPHIL: tissue Blood; for ALANINE AMINOTRANSFERASE / ALBUMIN / ALKALINE PHOSPHATASE / ASPARTATE AMINOTRANSFERASE / BLOOD UREA NITROGEN / CARBON DIOXIDE / CHLORIDE / CHOLESTEROL / CREATINE PHOSPHOKINASE / CREATININE / GLUCOSE / LACTATE DEHYDROGENASE / LIPASE / PHOSPHORUS / POTASSIUM / SODIUM / TOTAL BILIRUBIN / TOTAL PROTEIN / URIC ACID: tissue Plasma
[1] = 29 mg/kg, 120 h, dose level Low, time 5 day
[2] = 200 mg/kg, 72 h, dose level High, time 3 day
[3] = 200 mg/kg, 120 h, dose level High, time 5 day

Cc1ccnc2c1NC(=O)c1cccnc1N2C1CC1 [NEVIRAPINE]
ABSOLUTE EOSINOPHIL [1]: 0 CELLS/uL | ABSOLUTE LYMPHOCYTE [1]: 5766.33 CELLS/uL | ABSOLUTE MONOCYTE [1]: 26.67 CELLS/uL | ABSOLUTE SEGMENTED NEUTROPHIL [1]: 340.33 CELLS/uL | BASOPHIL [1]: 0% | EOSINOPHIL [1]: 0% | ERYTHROCYTE COUNT [1]: 5.58 x10E6/uL | HEMATOCRIT [1]: 33.7% | HEMOGLOBIN [1]: 13.2 G/DL | LEUKOCYTE COUNT [1]: 6.13 x10E3/uL | LYMPHOCYTE [1]: 94.33% | MEAN CORPUSCULAR HEMOGLOBIN [1]: 23.7 pg | MEAN CORPUSCULAR HEMOGLOBIN CONCENTRATION [1]: 39.2 G/DL | MEAN CORPUSCULAR VOLUME [1]: 60.4 fL | MONOCYTE [1]: 0.33% | NEUTROPHIL [1]: 5.33% | NUCLEATED RED BLOOD CELLS [1]: 0 /100WBC | PLATELET COUNT [1]: 1219 x10E3/uL | ALANINE AMINOTRANSFERASE [1]: 55.67 u/L | ALBUMIN [1]: 4.23 G/DL | ALKALINE PHOSPHATASE [1]: 280.33 u/L | ASPARTATE AMINOTRANSFERASE [1]: 82.33 u/L | BLOOD UREA NITROGEN [1]: 15.33 mg/dL | CARBON DIOXIDE [1]: 34.33 mmol/L | CHLORIDE [1]: 98.67 MEQ/L | CHOLESTEROL [1]: 74.33 mg/dL | CREATINE PHOSPHOKINASE [1]: 403.67 u/L | CREATININE [1]: 0.39 mg/dL | GLUCOSE [1]: 132.33 mg/dL | LACTATE DEHYDROGENASE [1]: 98.67 u/L | LIPASE [1]: 11 u/L | PHOSPHORUS [1]: 10.8 mg/dL | POTASSIUM [1]: 6.38 MEQ/L | SODIUM [1]: 144.43 MEQ/L | TOTAL BILIRUBIN [1]: 0.17 mg/dL | TOTAL PROTEIN [1]: 5.7 G/DL | URIC ACID [1]: 0.87 mg/dL | ABSOLUTE BASOPHIL [2]: 0 CELLS/uL | ABSOLUTE EOSINOPHIL [2]: 0 CELLS/uL | ABSOLUTE LYMPHOCYTE [2]: 4383.33 CELLS/uL | ABSOLUTE MONOCYTE [2]: 11.67 CELLS/uL | ABSOLUTE SEGMENTED NEUTROPHIL [2]: 905 CELLS/uL | BASOPHIL [2]: 0% | EOSINOPHIL [2]: 0% | ERYTHROCYTE COUNT [2]: 5.28 x10E6/uL | HEMATOCRIT [2]: 32.53% | HEMOGLOBIN [2]: 12.53 G/DL | LEUKOCYTE COUNT [2]: 5.3 x10E3/uL | LYMPHOCYTE [2]: 83% | MEAN CORPUSCULAR HEMOGLOBIN [2]: 23.9 pg | MEAN CORPUSCULAR HEMOGLOBIN CONCENTRATION [2]: 38.7 G/DL | MEAN CORPUSCULAR VOLUME [2]: 61.8 fL | MONOCYTE [2]: 0.33% | NEUTROPHIL [2]: 16.67% | NUCLEATED RED BLOOD CELLS [2]: 0.67 /100WBC | PLATELET COUNT [2]: 1104 x10E3/uL | ALANINE AMINOTRANSFERASE [2]: 63 u/L | ALBUMIN [2]: 4.4 G/DL | ALKALINE PHOSPHATASE [2]: 260.67 u/L | ASPARTATE AMINOTRANSFERASE [2]: 84.67 u/L | BLOOD UREA NITROGEN [2]: 16.33 mg/dL | CARBON DIOXIDE [2]: 27.67 mmol/L | CHLORIDE [2]: 101.67 MEQ/L | CHOLESTEROL [2]: 85.33 mg/dL | CREATINE PHOSPHOKINASE [2]: 227 u/L | CREATININE [2]: 0.11 mg/dL | GLUCOSE [2]: 145 mg/dL | LACTATE DEHYDROGENASE [2]: 139.67 u/L | LIPASE [2]: 12.33 u/L | PHOSPHORUS [2]: 10.8 mg/dL | POTASSIUM [2]: 5.63 MEQ/L | SODIUM [2]: 147 MEQ/L | TOTAL BILIRUBIN [2]: 0.13 mg/dL | TOTAL PROTEIN [2]: 5.9 G/DL | URIC ACID [2]: 1.03 mg/dL | ABSOLUTE BASOPHIL [3]: 0 CELLS/uL | ABSOLUTE EOSINOPHIL [3]: 0 CELLS/uL | ABSOLUTE LYMPHOCYTE [3]: 5735 CELLS/uL | ABSOLUTE MONOCYTE [3]: 88 CELLS/uL | ABSOLUTE SEGMENTED NEUTROPHIL [3]: 443.67 CELLS/uL | BASOPHIL [3]: 0% | EOSINOPHIL [3]: 0% | ERYTHROCYTE COUNT [3]: 5.22 x10E6/uL | HEMATOCRIT [3]: 33.87% | HEMOGLOBIN [3]: 13.47 G/DL | LEUKOCYTE COUNT [3]: 6.27 x10E3/uL | LYMPHOCYTE [3]: 91.67% | MEAN CORPUSCULAR HEMOGLOBIN [3]: 25.83 pg | MEAN CORPUSCULAR HEMOGLOBIN CONCENTRATION [3]: 39.8 G/DL | MEAN CORPUSCULAR VOLUME [3]: 64.77 fL | MONOCYTE [3]: 1.33% | NEUTROPHIL [3]: 7% | NUCLEATED RED BLOOD CELLS [3]: 0.67 /100WBC | PLATELET COUNT [3]: 1370.67 x10E3/uL | ALANINE AMINOTRANSFERASE [3]: 55.67 u/L | ALBUMIN [3]: 4.03 G/DL | ALKALINE PHOSPHATASE [3]: 286 u/L | ASPARTATE AMINOTRANSFERASE [3]: 87 u/L | BLOOD UREA NITROGEN [3]: 13 mg/dL | CARBON DIOXIDE [3]: 33.67 mmol/L | CHLORIDE [3]: 99 MEQ/L | CHOLESTEROL [3]: 89.33 mg/dL | CREATINE PHOSPHOKINASE [3]: 578.67 u/L | CREATININE [3]: 0.38 mg/dL | GLUCOSE [3]: 136 mg/dL | LACTATE DEHYDROGENASE [3]: 142 u/L | LIPASE [3]: 10.33 u/L | PHOSPHORUS [3]: 10.57 mg/dL | POTASSIUM [3]: 6.07 MEQ/L | SODIUM [3]: 146.23 MEQ/L | TOTAL BILIRUBIN [3]: 0.13 mg/dL | TOTAL PROTEIN [3]: 6.13 G/DL | URIC ACID [3]: 0.63 mg/dL
